Source: publication PMC9220178, “Preclinical Characterization of Antioxidant Quinolyl Nitrone QN23 as a New Candidate for the Treatment of Ischemic Stroke” (Antioxidants, 2022)

Columns and labels:
[1] = system: adult male Wistar rats, four-vessel occlusion (4VO) transient forebrain ischemia; test: Neuronal death by Fluoro-Jade B staining after transient global cerebral ischemia (4VO); type: in vivo, rat; conditions: for Neuroprotection (neuronal death, Fluoro-Jade B): vehicle = 0%
Procedure: Transient forebrain ischemia was induced in adult male Wistar rats (10–12 weeks, Charles River, L’Arbresle, France) by the standard four-vessel occlusion (4VO) model previously described. Briefly, animals were anesthetized by intraperitoneal injection of a combination of ketamine, diazepam, and atropine (62.5, 5.0, and 0.25 mg/kg, respectively); positioned in a stereotactic device; and both vertebral arteries were cauterized. The next day, anesthesia was induced with 4% isoflurane and maintained at 2–2.5% isoflurane for carotid artery dissection. After anesthesia withdrawal, the carotid arteries were occluded with an atraumatic vascular clamp to induce brain ischemia. During the entire surgical procedure, temperature was monitored at 2 min intervals and kept at 37 °C. After 15 min of ischemia, the carotid arteries were unclamped for brain reperfusion. The animals were studied after 5 days of reperfusion (R5d), or after 11 weeks of reperfusion (long-term studies), and then they were euthanized under deep anesthesia. Animals from the sham control group were handled in the same way, but without occlusion of the carotid arteries. Ischemic animals were treated with vehicle solution (ethanol/polyethylene glycol 400/saline, 1:300:200 v/v), or with nitrones QN23 or NXY-059 in vehicle solution, as a single injection through the tail vein at the onset of reperfusion. For the therapeutic window experiments, the animals were also treated at reperfusion times 1, 3, and 6 h after ischemia. The treatments were prepared by an independent researcher and administered with concealed allocation. Treatments were administered in a randomized order obtained by a computer-based randomization program. To determine the sample size, a power analysis (http://www.biomath.info/power/ttest.htm, accessed on 12 March 2020) with significance level set at 0.05 and statistical power set at 0.8 (80%) rendered a sample size of <6 subjects per group. A total of 120 ischemic animals (30 animals treated with vehicle, 60 treated with QN23, and 30 treated with NXY-059) and 9 sham control animals were included in these studies. Additionally, 13 animals were excluded from the study: 6 animals were not ischemic and 7 animals died within the 24 h after the surgical procedure (5 vehicles, 1 QN23-treated at 1.0 mg/kg, and 1 QN23-treated at 2.0 mg/kg). The Animal Care Ethics Committee of the Hospital Universitario Ramón y Cajal (Madrid, Spain) authorized all the procedures involving the animal experimentation reported here (authorization number 04/2020). These experiments were performed according to ARRIVE guidelines and the legislation on the protection of animals used for scientific purposes in Spain (RD 53/2013) and the EU (Directive 2010/63/EU). The study was designed and conducted according to the STAIR guidelines regarding physiological monitoring, sample randomization, predefined exclusion criteria, allocation concealment, blinded assessment of outcomes, dose–response definition, and a conflict-of-interest statement.
After 5 days of reperfusion (R5d), or at 11 weeks of reperfusion in long-term studies, animals were euthanized by transcardiac perfusion via the left ventricle under deep anesthesia. First, blood was washed out with 200 mL of ice-cold saline medium, followed by fixation with 4% (w/v) paraformaldehyde solution in PBS for brain preservation. Then, the brains were carefully removed from the cranial cavity and placed in 4% (w/v) paraformaldehyde solution in PBS overnight at 4 °C. The next day, the brains were sequentially placed in 10%, 20%, and 30% (w/v) sucrose in PBS until sunken, and finally embedded in Tissue-Tek O.C.T. (Sakura Finetek, Torrance, CA, USA) before freezing at −80 °C. Brain coronal sections containing the hippocampus region were obtained by cryostat sectioning at the level of interaural line +5.7 ± 0.2 mm on Real Capillary Gap microscope slides (Agilent Dako, Santa Clara, CA, USA). […]

[2] = system: adult male Wistar rats, four-vessel occlusion (4VO) transient forebrain ischemia; test: Neurological deficit score (NDS) after global cerebral ischemia (4VO); type: in vivo, rat; conditions: R5d
Procedure: Transient forebrain ischemia was induced in adult male Wistar rats (10–12 weeks, Charles River, L’Arbresle, France) by the standard four-vessel occlusion (4VO) model previously described. Briefly, animals were anesthetized by intraperitoneal injection of a combination of ketamine, diazepam, and atropine (62.5, 5.0, and 0.25 mg/kg, respectively); positioned in a stereotactic device; and both vertebral arteries were cauterized. The next day, anesthesia was induced with 4% isoflurane and maintained at 2–2.5% isoflurane for carotid artery dissection. After anesthesia withdrawal, the carotid arteries were occluded with an atraumatic vascular clamp to induce brain ischemia. During the entire surgical procedure, temperature was monitored at 2 min intervals and kept at 37 °C. After 15 min of ischemia, the carotid arteries were unclamped for brain reperfusion. The animals were studied after 5 days of reperfusion (R5d), or after 11 weeks of reperfusion (long-term studies), and then they were euthanized under deep anesthesia. Animals from the sham control group were handled in the same way, but without occlusion of the carotid arteries. Ischemic animals were treated with vehicle solution (ethanol/polyethylene glycol 400/saline, 1:300:200 v/v), or with nitrones QN23 or NXY-059 in vehicle solution, as a single injection through the tail vein at the onset of reperfusion. For the therapeutic window experiments, the animals were also treated at reperfusion times 1, 3, and 6 h after ischemia. The treatments were prepared by an independent researcher and administered with concealed allocation. Treatments were administered in a randomized order obtained by a computer-based randomization program. […]
After 5 days of post-ischemic reperfusion (R5d), neurological deficits were evaluated in the animals by a researcher blind to the treatment allocation. General status and mobility impairments were quantified according to a scale previously validated in an entire cohort of R5d animals (n = 20). […]

[3] = system: Wistar male rats subjected to global cerebral ischemia; test: Imaging of cerebral ROS with dihydroethidium (DHE) in brain ischemia; type: in vivo, rat; conditions: 2.0 mg/kg i.v. at reperfusion onset; CA1 and cortical regions; 6 h of reperfusion
Procedure: In order to evaluate the antioxidant capacity of QN23 in vivo, the fluorescent probe dihydroethidium (DHE) was used for superoxide and hydrogen peroxide detection according to the experimental procedure described in [29], with minor modifications. Animals subjected to global cerebral ischemia (Wistar male rats of 280–300 g) were treated with vehicle or QN23 at the onset of the reperfusion period, and after 2 h of reperfusion DHE (3.0 mg/kg; 0.9 mg/mL in DMSO/polyethylene glycol 400/saline, 2.5:50:47.5 v/v) was intravenously injected (1 mL). DHE (Sigma-Aldrich, Merck KGaA, Darmstadt, Germany) was freshly weighted and dissolved just before the injection to avoid undesired air-driven oxidation. At 6 h of reperfusion after ischemia (4 h after DHE injection), the animals were euthanized and perfused with saline and 4% (w/v) paraformaldehyde in PBS. […]
Hippocampal CA1 subfields and cortical fields from a given brain section were randomly selected and analyzed with fluorescence microscopy (20× objective), and the selected images (425 × 340 μm) were digitized with a color CCD camera (1280 × 1024 pixel resolution). Fluorescence intensity (in red) of ROS-reacted DHE was evaluated and normalized to the number of DAPI-stained nuclei by using an image analysis software (Image-J 1.53). At least four images per brain sample, and 3 to 6 brains per experimental group, were evaluated and averaged. […]

[4] = system: primary neuronal cultures subjected to OGD; set-up: method as in PMID 30715875; conditions: cited from earlier work
[5] = system: experimental cerebral ischemia; set-up: method as in PMID 30715875; conditions: 1.5 mg/kg intraperitoneally; cited from earlier work
[6] = cerebral cortex, 2.0 mg/kg i.v. at reperfusion onset, R5d
[7] = applied at onset of recovery period after OGD

**Q.** What does the source list for `COc1ccc2nc(Cl)c(/C=[N+](\[O-])C(C)(C)C)cc2c1` [QN23, (Z)-N-tert-Butyl-1-(2-chloro-6-methoxyquinolin-3-yl)methanimine Oxide]?
**A.** Therapeutic window: injection time after reperfusion onset with significantly decreased neuronal death ([1]; 2.0 mg/kg i.v., CA1 and cortical regions, R5d, times tested 0, 1, 3, 6 h): up to 3 h; Neuroprotection (neuronal death, Fluoro-Jade B) ([1]; cerebral cortex, 1.5 mg/kg i.v. at reperfusion onset, R5d): 89.2%; Neuronal death compared with vehicle [1, 6]: significantly reduced; Neuroprotection (neuronal death, Fluoro-Jade B) [1, 6]: 89.5%; EC50 of neuroprotection, neuronal death assay ([1]; either CA1 or cortical region, i.v., from dose-response curve): 0.3 mg/kg; Neuroprotection (neuronal death, Fluoro-Jade B) ([1]; hippocampal CA1, 1.5 mg/kg i.v. at reperfusion onset, R5d): 22.6%; Neuroprotection (neuronal death, Fluoro-Jade B) ([1]; hippocampal CA1, 2.0 mg/kg i.v. at reperfusion onset, R5d): 23.8%; Neuronal death compared with vehicle ([1]; hippocampal CA1, 2.0 or 2.5 mg/kg i.v. at reperfusion onset, R5d): significantly reduced; General status (neurological deficit score, NDS) compared with vehicle ([2]; 2.0 mg/kg i.v. at reperfusion onset): significant improvement; Therapeutic window: administration time after reperfusion onset with significantly reduced NDS ([2]; 2.0 mg/kg i.v., times tested 0, 1, 3, 6 h): up to 3 h; Fluorescence intensity of ROS-reacted DHE compared with vehicle [3]: decreased significantly; Most effective concentration for neuroprotection [4, 7]: 100 µM; Optimal range of concentration for neuroprotection [4, 7]: 0.3 to 250 µM; ROS and lipid peroxidation levels ([4]; primary neuronal cultures subjected to OGD): decreased; Neuroprotective effect (neuronal death and neuronal apoptosis assays) [5]: significant neuroprotective effect
